From PubChem BioAssay AID2060604 (Molecular Pharmacology Branch, DTP, NCI, 2025)

Test system: 379773-124-R-J2-PDC complex spheroids, viability % test/control
Assay: Anticancer human tumor 379773-124-R-J2-PDC patient-derived endometrial carcinoma cell line growth inhibition [CLK]
Settings: for IC50: curve of first compound; for viability, T/C: stronger effect = lower value
Source text: A high-throughput screen of multi-cell type tumor spheroids was designed to identify active combinations of […] and targeted small molecules. Complex spheroids include a stromal component modeled by human endothelial cells (HUVEC) and fibroblasts modeled by human mesenchymal stem cells (MSCs). The concentration ranges selected for each drug and investigational agent were based upon clinically achievable concentrations if the clinical Cmax of the agent was known.
Compounds. The drugs and investigational agents: cirtuvivint (SM08502; NSC835563), CC-671 (NSC850746), vemurafenib (NSC761431), tapotoclax (NSC804041), sotorasib (NSC818433), adagrasib (NSC831453), MRTX-1133 (NSC836407), BAY2416964 (NSC825713), copanlisib (NSC816437), inavolisib (NSC800729), abemaciclib (NSC768073), osimertinib (NSC779217), entinostat (NSC756642), eltanexor (KPT-8602, NSC794443), venetoclax (NSC766270), ceralasertib (NSC777638), bortezomib (NSC756655), olaparib (NSC753686), talazoparib (NSC767125), alisertib (NSC759677), peposertib (NSC802822), gemcitabine (NSC613327), 5-fluorouracil (NSC19893), SN-38 (NSC673596), oxaliplatin (NSC266046), paclitaxel (NSC125973), and doxorubicin (NSC123127), were obtained from the National Cancer Institute (NCI) Developmental Therapeutics Program Chemical Repository. The FDA-approved anticancer drug set is available from the Developmental Therapeutics Program at https://dtp.cancer.gov/organization/dscb/obtaining/available plates.htm. […] The stock solutions were prepared in dimethyl sulfoxide (DMSO, Sigma-Aldrich, St. Louis, MO, cat. D2650), except for the platinum complexes which were prepared in saline (Quality Biological, Gaithersburg, MD, cat. 114-055-101), at 800-fold the tested concentration and stored at -70 degrees C prior to their use. All drugs and investigational agents were tested over a range starting from a high concentration at or near the clinical Cmax and decreasing in half-log increments. If the clinical Cmax for an agent had not been determined, the highest concentration tested was 10 microM.
Cell Culture. All cells were maintained in an incubator at 37 degrees C and 5% CO2 with 95% humidity. The PDC lines were cultured according to standard operating procedures established by the NCI PDMR. Briefly, all PDCs were thawed and cultured in Matrigel-coated flasks prepared with a working solution of 1X Ham's F-12 nutrient mix, without supplementation (Invitrogen, Waltham, MA, cat. 11765054), 100 U/mL penicillin-streptomycin (Invitrogen, cat. 15140122), and 2.5% Matrigel (Corning Inc., Corning, NY, cat. 354248) for the first three passages. The 947758-054-R-J2-PDC line was cultured in 6B/Colon 1A media, which includes advanced DMEM/F-12 (Thermo Fisher Scientific, cat. 12634028), 10 mM HEPES (Thermo Fisher Scientific, cat. 15630080), 1X GlutaMAX supplement (Thermo Fisher Scientific, cat. 35050061), 0.1 mg/mL primocin (InvivoGen, cat. ant-pm-2), 10% defined fetal bovine serum, heat inactivated (HyClone Laboratories Inc., cat. SH30070.03HI), 1.25 mM N-Acetyl-L-cysteine (Sigma-Aldrich, cat. A9165), 10 mM nicotinamide (Sigma-Aldrich, cat. N0636), 1X B-27 supplement (Thermo Fisher Scientific, cat. 17504044), 1X N-2 supplement (Thermo Fisher Scientific, cat. 17502048), and 10 microM Y-27632 dihydrochloride (Tocris Bioscience, cat. 1254). The 876862-298-R-J1-PDC was cultured in 6E media, which includes all 6B/Colon 1A media components plus 50% L-WRN conditioned media (ATCC, cat. CRL-3276), 50 ng/mL recombinant human EGF recombinant protein (hEGF; Thermo Fisher Scientific, cat. PHG0311), 10 ng/mL recombinant human fibroblast growth factor 10 (hGFG-10; PeproTech, cat. 100-26), 1 ng/mL recombinant human fibroblast growth factor 2 (hFGF-2; PeproTech, cat. 100-18B), and 1 µM prostaglandin E2 (PGE2; Tocris, cat. 2296). The 227483-062-R1-J1-PDC line was cultured in Panc media, containing all 6E components except hFGF-2, with the addition of 500 nM SB-431542 (Selleckchem, cat. S1067) and 10 nM gastrin (Tocris, cat. 3006). […]
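Note: compound exposure lasted seven days before the viability readout.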
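Throughout, for viability, T/C: 100% = DMSO vehicle control wells.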

C=CC(=O)Nc1cc(Nc2nccc(-c3cn(C)c4ccccc34)n2)c(OC)cc1N(C)CCN(C)C + CNC(=O)c1ccc(Nc2nc(OC3CCCC3)c3c(-c4ccc5nc(C)oc5c4)c[nH]c3n2)c(OC)c1
IC50 (second compound 0.0316 µM): > 300 nM | IC50 (second compound 0.1 µM): < 0.949 nM | IC50 (second compound 0.316 µM): < 0.949 nM | IC50 (second compound 1 µM): < 0.949 nM | IC50 (second compound 3.16 µM): < 0.949 nM | IC50 (second compound 10 µM): < 0.949 nM | viability, T/C (second compound 0.0316 µM, first compound 0.000949 µM): 82.7% | viability, T/C (second compound 0.0316 µM, first compound 0.003 µM): 84.2% | viability, T/C (second compound 0.0316 µM, first compound 0.00949 µM): 78.9% | viability, T/C (second compound 0.0316 µM, first compound 0.03 µM): 73% | viability, T/C (second compound 0.0316 µM, first compound 0.0949 µM): 77.6% | viability, T/C (second compound 0.0316 µM, first compound 0.3 µM): 58.1% | viability, T/C (second compound 0.1 µM, first compound 0.000949 µM): 35.2% | viability, T/C (second compound 0.1 µM, first compound 0.003 µM): 37% | viability, T/C (second compound 0.1 µM, first compound 0.00949 µM): 42.6% | viability, T/C (second compound 0.1 µM, first compound 0.03 µM): 31.2% | viability, T/C (second compound 0.1 µM, first compound 0.0949 µM): 32.5% | viability, T/C (second compound 0.1 µM, first compound 0.3 µM): 38% | viability, T/C (second compound 0.316 µM, first compound 0.000949 µM): 44.7% | viability, T/C (second compound 0.316 µM, first compound 0.003 µM): 39.9% | viability, T/C (second compound 0.316 µM, first compound 0.00949 µM): 32% | viability, T/C (second compound 0.316 µM, first compound 0.03 µM): 34.5% | viability, T/C (second compound 0.316 µM, first compound 0.0949 µM): 31.3% | viability, T/C (second compound 0.316 µM, first compound 0.3 µM): 26.2% | viability, T/C (second compound 1 µM, first compound 0.000949 µM): 45.4% | viability, T/C (second compound 1 µM, first compound 0.003 µM): 39% | viability, T/C (second compound 1 µM, first compound 0.00949 µM): 31.2% | viability, T/C (second compound 1 µM, first compound 0.03 µM): 28.8% | viability, T/C (second compound 1 µM, first compound 0.0949 µM): 26.6% | viability, T/C (second compound 1 µM, first compound 0.3 µM): 30.4% | viability, T/C (second compound 3.16 µM, first compound 0.000949 µM): 30.1% | viability, T/C (second compound 3.16 µM, first compound 0.003 µM): 37.5% | viability, T/C (second compound 3.16 µM, first compound 0.00949 µM): 32.5% | viability, T/C (second compound 3.16 µM, first compound 0.03 µM): 34.3% | viability, T/C (second compound 3.16 µM, first compound 0.0949 µM): 25.7% | viability, T/C (second compound 3.16 µM, first compound 0.3 µM): 28.2% | viability, T/C (second compound 10 µM, first compound 0.000949 µM): 30.9% | viability, T/C (second compound 10 µM, first compound 0.003 µM): 30.1% | viability, T/C (second compound 10 µM, first compound 0.00949 µM): 27.1% | viability, T/C (second compound 10 µM, first compound 0.03 µM): 35.1% | viability, T/C (second compound 10 µM, first compound 0.0949 µM): 28% | viability, T/C (second compound 10 µM, first compound 0.3 µM): 25.9%
